According to patent publication US9410142B2, “Dendrimer-based excipients for the attenuation of protein aggregation” (Massachusetts Institute of Technology, priority 2010, dated 2016):

Columns and labels:
[1] = Partial molar volume from density measurements of dendrimer only solutions; type: physicochemical
[2] = molecular target: Concanavalin A (Con A) (Canavalia ensiformis, UniProt P02866); assay: Con A aggregation / shelf-life at pH 6.5 and 37° C.; type: physicochemical; settings: isotonic concentrations, 40 mM sodium phosphate pH 6.5, 37° C., time for 5% loss of protein vs no additive
Method: This Shelf-Life Extension Factor was determined by comparing the length of time, t95, for a 5% loss of protein when in the presence of the compounds to the original length of time, t95,0 for a 5% loss. For comparison purposes, isotonic concentrations (as determined by VPO) of the compounds were used and Shelf-Life Extension Factor values for commonly used excipients at isotonic concentrations are shown as well. Shelf-life values of aCgn were determined at 52.5° C. and at 37° C. for Con A.

[3] = molecular target: T1, α-chymotrypsinogen A (aCgn) (Bos taurus, UniProt P00766); assay: DSC denaturation midpoint temperature (Tm) of aCgn; type: physicochemical, Bovine; settings: for dTm/d[3] aCgn denaturation midpoint temperature increment: 1 mg/mL aCgn, 20 mM sodium citrate pH 5, maximum dendrimer 0.2 mol/L; for rate of increase of Tm of aCgn: concentrations less than 0.2 mol/L
Method: The thermodynamic stability of aCgn in the presence of the arginine salts was determined by DSC (Microcal VP-Differential Scanning calorimeter located in the Biophysical Instrumentation Facility (BIF) at MIT). Each reading began with a minimum of three buffer-buffer up and down scans (in this case, the buffer also contains the cosolute of interest) to establish a reproducible thermal history followed by a single protein-buffer up scan. aCgn was analyzed at a concentration of 1 mg/mL in a 20 mM sodium citrate pH 5 buffer containing the cosolute of interest and a scan rate of 90° C./hour. The data was analyzed in the MicroCal Origin® plotting software. In the analysis, the last buffer-buffer reference scan was first subtracted from the data and then the data was normalized with respect to the protein concentration, cell volume, and scan rate. The baseline (which was progressed through the peak) was then subtracted from the plot and the denaturation midpoint temperature, Tm, was taken as the temperature at the peak maximum of the unfolding event. For each arginine salt, three concentrations (including zero concentration) were tested and Tm values with respect to cosolute concentration were fitted to a linear trend.
The thermostability of aCgn at 1 mg/mL in the presence of the modified dendrimers was assessed by determining the denaturation midpoint temperature (Tm) from DSC scans, which is a qualitative indicator of how the conformational stability of the protein is perturbed. Ghosh K et al. (2009) Proc Natl Acad Sci USA 106:10649-10654.

[4] = molecular target: T1, α-chymotrypsinogen A (aCgn); assay: aCgn aggregation (monomer loss) at 52.5° C. by size exclusion HPLC; type: physicochemical, Bovine; settings: for relative rate constant for aCgn monomer loss: additive concentration near 0.2 M; for aCgn t95/t95, 0 (Shelf-Life Extension Factor): isotonic concentrations, 20 mM sodium citrate pH 5, 52.5° C., time for 5% loss of protein vs no additive
Method: The aggregation of aCgn was accelerated by incubating samples at an elevated temperature. […] In addition to all aggregation experiments being conducted at that temperature, all samples contained 10 mg/mL aCgn, held at pH 5.0 using a 20 mM sodium citrate buffer. 50 μL aliquots of each protein-cosolute mixture were placed in 0.2 mL polymerase chain reaction (PCR) tubes and then incubated in a Bio-Rad Mycycler thermal cycler with a timer initiated when the thermal cycler reached the desired temperature. Each series contained 12 samples and up to 8 different mixtures were tested at the same time during any given experiment. Samples were removed periodically and immediately placed in an ice bath to quench the aggregation reaction. The length of each experiment was planned so that the extent of reaction was such that at least 20% of the protein aggregated, making changes in the rate of aggregation pronounced. After at least five minutes in the ice bath, the samples were briefly spun in a minicentrifuge to remove precipitated aggregates and then transferred to autosampler vials.
All aCgn samples were first treated with phenylmethylsulfonyl fluoride to inhibit residual amounts of active enzyme and, after dialysis, solutions were frozen, rather than lyophilized, in 0.3 mL aliquots and used within 6 months. […] Solutions for the aggregation study were prepared by first preparing a solution of the cosolute of interest in a 20 mM sodium citrate pH 5 buffer at a concentration double that of interest (adjusting the pH to 5 if needed with the appropriate acid or an 8 M sodium hydroxide solution), then mixing 0.3 mL of this solution with 0.3 mL of a thawed aCgn solution. This solution was then divided into twelve aliquots, each 50 μL in volume, and incubated at an elevated temperature, as described below.
15 μL, of each aCgn sample were injected into an Agilent 1200 series HPLC, equipped with a Zorbax GF-250 (4.6×250 mm, 4 micron) size exclusion column and a UV-Vis detector, during a sequence. The HPLC mobile phase contained 25 mM citric acid monohydrate, 25 mM sodium acetate, and 200 mM sodium chloride with the pH adjusted to 4.0 using sodium hydroxide. The flow rate was set at 1 mL/min and samples were monitored at 280 nm.
Peak area at each time point was compared to the peak area for an unstressed sample to create a monomer loss profile normalized with respect to the initial concentration. Each profile was compared to a profile for a sample containing no cosolute to determine the change in aggregation rate upon addition of the cosolute. For a control, each aggregation experimental setup had one protein solution that contained no cosolute to verify that the baseline aggregation rate remained constant amongst all experiments.
The most notable consequence of perturbing a protein's environment is the enhancement or inhibition of protein aggregation. Deyoung L R et al. (1993) Accounts Chem Res 26:614-620; Fink A L (1998) Fold Des 3:R9-R23. The guanidinium-modified dendrimers were added to model protein solutions and incubated at an elevated temperature to determine how they influence the rate of this degradation pathway. […] At low dendrimer concentrations (0.05 M), the rate of monomer loss in the presence of the surface-modified dendrimer is slower than when compared to the reference solution. However, this aggregation rate reduction is insignificant when compared to the rate reduction induced by a high concentration of other commonly used additives such as arginine hydrochloride (ArgHCl), which is also depicted in the figure. Furthermore, as the concentration of the surface-modified dendrimer is increased, the aggregation rate reduction decreases until ultimately, the rate of aggregation is increased. At a concentration of 0.2 M, the surface-modified dendrimer induced rapid aggregation, causing a 50% loss in about 10 minutes as opposed to 30 minutes for the solution containing no cosolute. […]

SMILES	V0 partial molar volume at infinite dilution [1] [L/mol]	Con A t95/t95, 0 (Shelf-Life Extension Factor) ([2]; listed as Dend. 0 Gdm(H2PO4))	Con A t95/t95, 0 (Shelf-Life Extension Factor) ([2]; listed as phosphate form)	dTm/d[3] aCgn denaturation midpoint temperature increment [3] [K * L/mol]	rate of increase of Tm of aCgn [3] [° C.*M^−1]	relative rate constant for aCgn monomer loss ([4]; 10 mg/mL aCgn, pH 5, 52.5° C.)	aCgn t95/t95, 0 (Shelf-Life Extension Factor) [4]	Con A t95/t95, 0 (Shelf-Life Extension Factor) [2]	aCgn aggregation suppression compared with other salt forms / generations (FIG. 5, 6, 8) ([4]; 10 mg/mL aCgn, pH 5, 52.5° C.)
N=C(N)NCCNC(=O)CCN(CCC(=O)NCCNC(=N)N)CCN(CCC(=O)NCCNC(=N)N)CCC(=O)NCCNC(=N)N.O=P(O)(O)O.O=P(O)(O)O.O=P(O)(O)O.O=P(O)(O)O.O=P(O)(O)O.O=P(O)(O)O [Gdm(H2PO4)]	0.7254	1.6	minimal improvement	37.4	37.4	approximately 0.02	18.9		
N=C(N)NCCNC(=O)CCN(CCC(=O)NCCNC(=N)N)CCN(CCC(=O)NCCNC(=N)N)CCC(=O)NCCNC(=N)N.O=S(=O)(O)O.O=S(=O)(O)O.O=S(=O)(O)O [Gdm(SO4)1/2]	0.5665			15.2	15.2	approximately 0.02	26.9	5.9	nearly identical ability for inhibiting aggregation as the H2PO4 salt form
